Patent US20250145633A1, “SUBSTITUTED FURANOPYRIMIDINE COMPOUNDS AS PDE1 INHIBITORS” (Dart NeuroScience, LLC, priority 2017, published 2025)

Target: human PDE1B enzyme (Homo sapiens (Human), UniProt Q01064)
Assay: IMAP TR-FRET PDE1B enzymatic assay
Format: biochemical
Settings: negative log of half-maximal molar inhibitory concentration, 200 nM FAM-cAMP, values given as bins; for IC50: read-out: PDE1b (pIC50) (converted)
Method in brief: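 Full-length GST-tagged human PDE1B (250 pg/well) in IMAP BSA buffer with 10 U/ml calmodulin and 2.5 mM CaCl2; compound pre-incubated 5 min at room temperature, then 200 nM (final) FAM-cAMP for 30 min. IMAP binding reagent/Tb added, 1 h; TR-FRET 520/490 ratio read. IC50 from sigmoidal dose-response fit.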

Structure (SMILES)	PDE1b (pIC50)	IC50
Cc1oc2ncnc(NC3(C)CC3)c2c1C(=O)N1CCC(F)(c2ccc(F)cc2)C1 (stereo not drawn) [Example 133, 5-[3-Fluoro-3-(4-fluorophenyl)pyrrolidine-1-carbonyl]-6-methyl-N-(1-methylcyclopropyl)furo[2,3-d]pyrimidin-4-amine]	>8	
Cc1oc2ncnc(NC3(C)CC3)c2c1C(=O)NCCO [Example 134, N-(2-Hydroxyethyl)-6-methyl-4-[(1-methylcyclopropyl)amino]furo[2,3-d]pyrimidine-5-carboxamide]		100 to 1000 nM
Cc1oc2ncnc(NC3(C)CC3)c2c1C(=O)NC(C)(C)CCO [Example 135, N-(4-Hydroxy-2-methylbutan-2-yl)-6-methyl-4-[(1-methylcyclopropyl)amino]furo[2,3-d]pyrimidine-5-carboxamide]	>8	
Cc1oc2ncnc(NC3(C)CC3)c2c1C(=O)NC(C)C [Example 136, 6-Methyl-4-[(1-methylcyclopropyl)amino]-N-(propan-2-yl)furo[2,3-d]pyrimidine-5-carboxamide]		10 to 100 nM
Cc1oc2ncnc(NC3(C)CC3)c2c1C(=O)NCC(C)C [Example 137, 6-Methyl-4-[(1-methylcyclopropyl)amino]-N-(2-methylpropyl)furo[2,3-d]pyrimidine-5-carboxamide]		10 to 100 nM
Cc1oc2ncnc(NC3(C)CC3)c2c1C(=O)NC(C)(C)C [Example 138, N-tert-Butyl-6-methyl-4-[(1-methylcyclopropyl)amino]furo[2,3-d]pyrimidine-5-carboxamide]		10 to 100 nM
Cc1oc2ncnc(NC3(C)CC3)c2c1C(=O)NCC1CCOCC1 [Example 139, 6-Methyl-4-[(1-methylcyclopropyl)amino]-N-(oxan-4-ylmethyl)furo[2,3-d]pyrimidine-5-carboxamide]		10 to 100 nM
CCC1(NC(=O)c2c(C)oc3ncnc(NC4(C)CC4)c23)CCOCC1 [Example 140, N-(4-Ethyloxan-4-yl)-6-methyl-4-[(1-methylcyclopropyl)amino]furo[2,3-d]pyrimidine-5-carboxamide]		10 to 100 nM
Cc1oc2ncnc(NC3(C)CC3)c2c1C(=O)Nc1cnn(C)c1 [Example 141, 6-Methyl-N-(1-methyl-1H-pyrazol-4-yl)-4-[(1-methylcyclopropyl)amino]furo[2,3-d]pyrimidine-5-carboxamide]		10 to 100 nM
Cc1cc(NC(=O)c2c(C)oc3ncnc(NC4(C)CC4)c23)no1 [Example 142, 6-Methyl-N-(5-methyl-1,2-oxazol-3-yl)-4-[(1-methylcyclopropyl)amino]furo[2,3-d]pyrimidine-5-carboxamide]		10 to 100 nM
Cc1oc2ncnc(NC3(C)CC3)c2c1C(=O)Nc1nccs1 [Example 143, 6-Methyl-4-[(1-methylcyclopropyl)amino]-N-(1,3-thiazol-2-yl)furo[2,3-d]pyrimidine-5-carboxamide]		10 to 100 nM
COc1ccc(NC(=O)c2c(C)oc3ncnc(NC4(C)CC4)c23)nc1 [Example 144, N-(5-Methoxypyridin-2-yl)-6-methyl-4-[(1-methylcyclopropyl)amino]furo[2,3-d]pyrimidine-5-carboxamide]		10 to 100 nM
CCC1(NC(=O)c2c(C)oc3ncnc(NC4(C)CC4)c23)CC1 [Example 145, N-(1-Ethylcyclopropyl)-6-methyl-4-[(1-methylcyclopropyl)amino]furo[2,3-d]pyrimidine-5-carboxamide]	>8	
Cc1oc2ncnc(NC3(C)CC3)c2c1C(=O)NC1(CO)CC1 [Example 146, N-[1-(Hydroxymethyl)cyclopropyl]-6-methyl-4-[(1-methylcyclopropyl)amino]furo[2,3-d]pyrimidine-5-carboxamide]		10 to 100 nM
Cc1oc2ncnc(NC3(C)CC3)c2c1C(=O)NC1(C(C)C)CC1 [Example 147, 6-Methyl-4-[(1-methylcyclopropyl)amino]-N-[1-(propan-2-yl)cyclopropyl]furo[2,3-d]pyrimidine-5-carboxamide]	>8	
COCC1(NC(=O)c2c(C)oc3ncnc(NC4(C)CC4)c23)CC1 [Example 148, N-[1-(Methoxymethyl)cyclopropyl]-6-methyl-4-[(1-methylcyclopropyl)amino]furo[2,3-d]pyrimidine-5-carboxamide]		10 to 100 nM
Cc1oc2ncnc(NC3(C)CC3)c2c1C(=O)NC1(C2CC2)CC1 [Example 149, N-(1-Cyclopropylcyclopropyl)-6-methyl-4-[(1-methylcyclopropyl)amino]furo[2,3-d]pyrimidine-5-carboxamide]		10 to 100 nM
Cc1oc2ncnc(NC3(C)CC3)c2c1C(=O)NC1(C2CCC2)CC1 [Example 150, N-(1-Cyclobutylcyclopropyl)-6-methyl-4-[(1-methylcyclopropyl)amino]furo[2,3-d]pyrimidine-5-carboxamide]	>8	

Structure (SMILES)	PDE1b (pIC50)	IC50
Cc1oc2ncnc(NC3(C)CC3)c2c1C(=O)NC1CC(c2ccc(F)cc2)C1 (stereo not drawn) [Example 151, N-[3-(4-Fluorophenyl)cyclobutyl]-6-methyl-4-[(1-methylcyclopropyl)amino]furo[2,3-d]pyrimidine-5-carboxamide]		10 to 100 nM
Cc1oc2ncnc(NC3(C)CC3)c2c1C(=O)N1CCN(c2ncccc2F)CC1 [Example 152, 5-[4-(3-Fluoropyridin-2-yl)piperazine-1-carbonyl]-6-methyl-N-(1-methylcyclopropyl)furo[2,3-d]pyrimidin-4-amine]	>8	
Cc1oc2ncnc(NC3(C)CC3)c2c1C(=O)N1CCN(c2ncc(F)cn2)CC1 [Example 153, 5-[4-(5-Fluoropyrimidin-2-yl)piperazine-1-carbonyl]-6-methyl-N-(1-methylcyclopropyl)furo[2,3-d]pyrimidin-4-amine]		10 to 100 nM
Cc1oc2ncnc(NC3(C)CC3)c2c1C(=O)N1CCN(c2cccc(F)n2)CC1 [Example 154, 5-[4-(6-Fluoropyridin-2-yl)piperazine-1-carbonyl]-6-methyl-N-(1-methylcyclopropyl)furo[2,3-d]pyrimidin-4-amine]	>8	
Cc1oc2ncnc(NC3(C)CC3)c2c1C(=O)N1CC[C@@H]2OCC[C@@H]21 [Example 155, 5-[(3aS,6aS)-Hexahydro-2H-furo[3,2-b]pyrrole-4-carbonyl]-6-methyl-N-(1-methylcyclopropyl)furo[2,3-d]pyrimidin-4-amine]		10 to 100 nM
Cc1oc2ncnc(NC3(C)CC3)c2c1C(=O)N1CCCN(c2ccccc2F)CC1 [Example 156, 5-[4-(2-Fluorophenyl)-1,4-diazepane-1-carbonyl]-6-methyl-N-(1-methylcyclopropyl)furo[2,3-d]pyrimidin-4-amine]		10 to 100 nM
Cc1oc2ncnc(NC3(C)CC3)c2c1C(=O)N1CCCN(c2ccccc2)CC1 [Example 157, 6-Methyl-N-(1-methylcyclopropyl)-5-(4-phenyl-1,4-diazepane-1-carbonyl)furo[2,3-d]pyrimidin-4-amine]		100 to 1000 nM
Cc1oc2ncnc(NC3(C)CC3)c2c1C(=O)N1CCCN(c2ccccn2)CC1 [Example 158, 6-Methyl-N-(1-methylcyclopropyl)-5-[4-(pyridin-2-yl)-1,4-diazepane-1-carbonyl]furo[2,3-d]pyrimidin-4-amine]		100 to 1000 nM
COc1ccc(N2CCCN(C(=O)c3c(C)oc4ncnc(NC5(C)CC5)c34)CC2)cc1 [Example 159, 5-[4-(4-Methoxyphenyl)-1,4-diazepane-1-carbonyl]-6-methyl-N-(1-methylcyclopropyl)furo[2,3-d]pyrimidin-4-amine]		100 to 1000 nM
Cc1oc2ncnc(NC3(C)CC3)c2c1C(=O)N1CCN(c2ccnc(F)c2)CC1 [Example 160, 5-[4-(2-fluoropyridin-4-yl)piperazine-1-carbonyl]-6-methyl-N-(1-methylcyclopropyl)furo[2,3-d]pyrimidin-4-amine]		10 to 100 nM
Cc1oc2ncnc(NC3(C)CC3)c2c1C(=O)N1CCN(c2cc(F)ncn2)CC1 [Example 161, 5-[4-(6-Fluoropyrimidin-4-yl)piperazine-1-carbonyl]-6-methyl-N-(1-methylcyclopropyl)furo[2,3-d]pyrimidin-4-amine]		10 to 100 nM
Cc1oc2ncnc(NC3(C)CC3)c2c1C(=O)N1CCN(c2ccnc(F)n2)CC1 [Example 162, 5-[4-(2-Fluoropyrimidin-4-yl)piperazine-1-carbonyl]-6-methyl-N-(1-methylcyclopropyl)furo[2,3-d]pyrimidin-4-amine]		10 to 100 nM
Cc1oc2ncnc(NC3(C)CC3)c2c1C(=O)NCc1ccncc1F [Example 163, N-[(3-Fluoropyridin-4-yl)methyl]-6-methyl-4-[(1-methylcyclopropyl)amino]furo[2,3-d]pyrimidine-5-carboxamide]		10 to 100 nM
Cc1oc2ncnc(NC3(C)CC3)c2c1C(=O)NCc1ccnc(F)c1 [Example 164, N-[(2-Fluoropyridin-4-yl)methyl]-6-methyl-4-[(1-methylcyclopropyl)amino]furo[2,3-d]pyrimidine-5-carboxamide]		10 to 100 nM
Cc1oc2ncnc(NC3(C)CC3)c2c1C(=O)NC1CCCC1 [Example 165, N-Cyclopentyl-6-methyl-4-[(1-methylcyclopropyl)amino]furo[2,3-d]pyrimidine-5-carboxamide]		10 to 100 nM
CCCCCNC(=O)c1c(C)oc2ncnc(NC3(C)CC3)c12 [Example 167, 6-Methyl-4-[(1-methylcyclopropyl)amino]-N-pentylfuro[2,3-d]pyrimidine-5-carboxamide]		10 to 100 nM
Cc1oc2ncnc(NC3(C)CC3)c2c1C(=O)NCCC(C)C [Example 168, 6-Methyl-N-(3-methylbutyl)-4-[(1-methylcyclopropyl)amino]furo[2,3-d]pyrimidine-5-carboxamide]		10 to 100 nM
CCC(CC)NC(=O)c1c(C)oc2ncnc(NC3(C)CC3)c12 [Example 169, 6-Methyl-4-[(1-methylcyclopropyl)amino]-N-(pentan-3-yl)furo[2,3-d]pyrimidine-5-carboxamide]		10 to 100 nM
